Seven molecules from patent publication US20250049741A1, “COMPOSITION FOR PREVENTING OR TREATING ALZHEIMER'S DISEASE COMPRISING PHOSPHOLIPASE C ACTIVATOR AS AN ACTIVE INGREDIENT” (Korea University Research and Business Foundation, priority 2021, published 2025) can be followed below.

Holding throughout (type): cell-based, Sprague-Dawley rats
Assay [1] concerns CA1 PCs in rat hippocampal slices. Nature of the assay: Ex vivo eCB / S-eCB mobilization protocol: eIPSC amplitudes by whole-cell voltage-clamp. The source says: To test the acute effect of AβO on hippocampal S-eCB mobilization, hippocampal slices from Sprague-Dawley rats (SD, 2 to 3 weeks old, DaeHan Biolink, Co., Ltd., Korea) were used. Male and female rats were used in all in vitro experiments. To test the chronic effect of AβO on hippocampus-dependent memory impairments caused by amyloidosis, the 5XFAD mouse model (6 to 7 months old, #34840-JAX, Jackson Laboratory, USA), which is a mouse model of Alzheimer's disease that mimics AβO depositions, was used. C57BL/6 mice (6 to 7 months old, KOATECH, Korea) were used as wild type (WT) control mice for 5XFAD mice. Male 5XFAD and C57BL/6 mice were used for all in vivo behavioral experiments. The 5XFAD mouse genotypes were identified by polymerase chain reaction (PCR) using DNA extracted from the tails of the mice. All animal-related procedures followed the guidelines of the Institutional Animal Care and Use Committee of Korea University (guidelines for SD rats: KUIACUC-2017-103, guidelines for C57BL/6 and 5XFAD mice: KUIACUC-2019-0068).
(§1) Soluble AβO was prepared according to a previous study (BMC Biol. 2020; 18(1):7). Specifically, Aβ1-42 (Aβ) and a scrambled form of Aβ as a control peptide were purchased in powder form. Aβ and scrambled Aβ were dissolved for monomerization in 1,1,1,3,3,3-hexafluoro-2-propanol (HFIP, Sigma Aldrich, USA) at a final concentration of 1 mM, and the solution was incubated for 90 minutes. After the HFIP was evaporated, the remaining thin and clear film of Aβ or scrambled Aβ was dissolved in dimethyl sulfoxide (DMSO, Sigma Aldrich, USA) to prepare 5 mM Aβ or scrambled Aβ stocks, which were aliquoted and frozen at −20° C. Aβ or scrambled Aβ stocks were thawed and diluted to 100 μM in artificial cerebrospinal fluid (ACSF). Thereafter, Aβ or scrambled Aβ stocks were incubated for oligomerization for 18 hours. The final AβO or scrambled AβO stock solution was diluted to a final concentration of 200 nM in 31.2 ml of ACSF, and rat hippocampal slices were treated with the stock solution for 20 minutes in a recovery chamber before measurement of brain signals. In control experiments for normal brain conditions using a vehicle, rat hippocampal slices were treated with 0.004% DMSO in ACSF.
(§2) The brains of SD rats were isolated following decapitation under isoflurane-induced anesthesia and transferred into ice-cold ACSF containing 126 mM NaCl, […], 1.25 mM NaH2PO4, 2 mM MgSO4, 2 mM CaCl2), 25 mM NaHCO3, and 10 mM glucose (pH 7.2 to 7.4). The ACSF was continuously oxygenated with 95% O2/5% CO2. Horizontal hippocampal slices (350 μm thickness) were obtained using a vibratome (VT1000S, Leica Biosystems, Germany) and immediately incubated at room temperature in a submerged chamber perfused with oxygenated ACSF for at least 1 hour.
To quantify eCB mobilization, the changes in eCB mobilization-induced Schaffer collateral (SC) nerve bundle stimulation-evoked inhibitory postsynaptic current (eIPSC) amplitudes were measured in CA1 PCs through the whole-cell voltage-clamp technique. The whole-cell voltage-clamp technique in CA1 PCs was performed using a MultiClamp 700B amplifier (Molecular Devices, USA) under an infrared differential interference contrast video microscope (BW51W, Olympus, Japan), using a borosilicate electrode (tip resistance: 4 to 8 MΩ) that was filled with an intracellular solution containing 145 mM CsCl, 10 mM HEPES, 2 mM EGTA, 4 mM QX-314, 4 mM Mg-ATP, 0.4 mM […], pH 7.2 to 7.3, and 270 to 280 mOsm/L. To record eIPSCs in the CA1 PCs, a stimulating electrode (A-M Systems, USA) was placed in a stratum radiatum to stimulate the SC pathway that carries CA3 PC axons. Electrical stimulation pulses of 200 to 400 μA amplitudes (20 to 40 μs) were generated using a constant current stimulator (model DS3, Digitimer Ltd., UK). eIPSCs were recorded in CA PCs every 1 second while maintaining the membrane potential at −70 mV.

Assay [2] deals with hippocampal CA3-CA1 excitatory synapses. Nature of the assay: S-eCB mobilization induced spike timing-dependent potentiation (tLTP) protocol, EPSP slope. On the procedure:
as §1, §2

In another assay the test system is PLCβ1. In words: Western blot of PLCβ1 in rat hippocampal slices. The settings on record: AβO-treated rat hippocampal slices. Here is the method:
as §1, with “The final AβO or scrambled AβO stock solution was diluted to a final concentration of 200 nM in 31.2 ml of ACSF, and rat hippocampal slices were treated with the stock solution for 20 minutes in a recovery chamber before measurement of brain signals. In control experiments for normal brain conditions using a vehicle, rat hippocampal slices were treated with 0.004% DMSO in ACSF.” left out
Hippocampal PLCβ1 of SD rats and C57BL/6 or 5XFAD mice were prepared from homogenized hippocampi dissolved in 200 μL of RIPA buffer (Bio-Rad, USA), and were resolved on non-reducing 10% tris-glycine-sodium dodecyl sulfate-polyacrylamide gel electrophoresis (SDS-PAGE) gels (Bio-Rad, USA) using 4×Laemmli sample buffers (Bio-Rad, USA). […] Immunoreactivity was confirmed with enhanced chemiluminescence (Bio-Rad, USA) using a Fluorchem E system (ProteinSimple, USA) and analyzed with ImageJ software. […]

Where [3] appears, read: DMSO-treated rat hippocampal slices, D-AP5 50 μM or AM251 3 μM.

In the case of `Cc1c(C(=O)NN2CCCCC2)nn(-c2ccc(Cl)cc2Cl)c1-c1ccc(I)cc1` [AM251], in assay [1] (AM251 3 μM, DHPG puff alone), the “effect on the DHPG-induced decrease of eIPSC amplitude (eCB mobilization)” value is on record as “blocked the decrease in amplitude”.
In the case of `N[C@H](CCCP(=O)(O)O)C(=O)O` [D-AP5, D-2-amino-5-phosphonovaleric acid], in assay [2] (setting [3]), the “mGluR5-mediated LTD in the presence of antagonist” value was “induced in both the test and control pathways”; the “tLTP induction (EPSP slope, test pathway), effect of antagonist” value is on record as “completely blocked”.
As to `N[C@H](C(=O)O)c1cc(O)cc(O)c1` [DHPG, (S)-3,5-dihydroxyphenylglycine], in assay [1] (DHPG (50 μM) puff alone, rat hippocampal slices, mean±SEM), the “first ten eIPSC amplitudes as % of the mean eIPSC amplitude measured at the baseline before the DHPG puff” value worked out at 79±7%. Also, the “eIPSC amplitude as % of the baseline eIPSC amplitude (S-eCB mobilization)” value in assay [1] (DHPG puff paired with 60-s-long postsynaptic neural spike trains at 1 Hz, DMSO-treated rat hippocampal slices, mean±SEM) was 62±4%.
On to `Cc1cc(C(=O)O)ccc1[C@H](N)C(=O)O` [LY367385], for which the “eIPSC amplitudes following 60-s-long DHPG puff during 1 Hz neural spikes in the presence of mGluR1 antagonist” value in assay [1] (LY367385 100 μM, DMSO-treated rat hippocampal slices) is “decreased”.
Consider `Cc1cccc(C#Cc2ccccc2)n1` [MPEP, 2-methyl-6-(phenylethynyl) pyridine], for which the “eIPSC amplitudes following DHPG puff during 1 Hz neural spikes in the presence of mGluR5 antagonist” value in assay [1] (MPEP 10 μM, DMSO-treated, AβO-treated or scrambled AβO-treated rat hippocampal slices) is “did not significantly change”.
On to `COc1ccc2c(c1)CC[C@@H]1[C@@H]2CC[C@]2(C)[C@@H](NCCCCCCN3C(=O)C=CC3=O)CC[C@@H]12` [U73122], for which, in assay [1] (U73122 5 μM, DMSO-treated rat hippocampal slices, similar in AβO- and scrambled AβO-treated slices), the “synergistic enhancement in the suppression of eIPSC amplitudes (S-eCB mobilization), effect of PLCβ blocker” value was “completely blocked”.
Take “AβO: soluble amyloid beta oligomer prepared from Aβ1-42 peptide powder (Bachem)”: in assay [2] (AβO-treated compared to DMSO-treated rat hippocampal slices), the “mGluR-LTD in the control pathway” value is on record as “not affected”. In assay [2] (AβO-treated rat hippocampal slices), the “induction of tLTP in the test pathway” value was “completely blocked”. Besides, the “protein expression levels of PLCβ1 compared to DMSO-treated slices” value with PLCβ1 is recorded as “remarkably decreased”. The “eIPSC amplitudes / suppression of eIPSC amplitudes following DHPG puff during 1 Hz neural spikes in peptide-treated slices” value in assay [1] (slices treated with 200 nM peptide for 20 minutes, in the presence of LY367385 100 μM) is reported as “completely blocked”.
